≈ marks a conversion by molar mass, not a printed value. Where two headings read alike, the source gives them in different places.
Experiments:
SK-MEL-3 cells [1] = assay: Cell viability (MTT assay), SK-MEL-3 melanoma cells; assay type: cell-based, human; details: for IC50: Homo sapiens, read-out: IC50 ± SD for Cell Viability, SK-MEL-3
Description: (§1) Cytotoxicity of the plant extracts, berberine, chelerythrine, chelidonine, protopine, and sanguinarine were examined against a panel of three melanoma cell lines (A375, G-361, SK-MEL-3) characterized by different degrees of genetic complexity. Human skin fibroblasts (CRL-1474) were used in order to evaluate the effect of Saguinaria canadensis extracts against normal (i.e., non-cancerous) cells. The investigated cell lines were obtained from American Type Culture Collection (ATCC; Manassas, VA, USA). A375 and CRL-1474 cells were cultured in Dulbecco’s Modified Eagle’s Medium (DMEM) (Sigma Aldrich, St. Louis, MO, USA), supplemented with 10% heat inactivated fetal bovine serum (FBS), penicillin (100 U/mL), and streptomycin (100 µg/mL). Human melanoma SK-MEL-3 and G-361 cells were maintained in McCoy’s 5A Medium (Sigma Aldrich, St. Louis, MO, USA) supplemented with 15% (for SK-MEL-3) or 10% (for G-361) FBS, penicillin (100 U/mL), and streptomycin (100 µg/mL). The cells were maintained at 37 °C in a 5% CO2 atmosphere. The dried plant extracts and standards ([…]) were dissolved in DMSO, in order to obtain stock solutions at concentrations of 50 mg/mL. At the day of the experiment, the suspension of cells (1 × 10^5 cells/mL) in the respective medium was applied to a 96-wellplate at 100 µL per well. After 24 h of incubation, the medium was removed from the wells and replaced by increasing concentrations of plant extracts or standards in medium containing 2% FBS. The control cells were only cultured with a medium containing 2% FBS. Cytotoxicity of DMSO was also checked at concentrations present in respective dilutions of stock solutions. After 24 h of incubation, 15 µL MTT working solution (5 mg/mL in PBS) was added to each well. The plate was incubated for 3 h. Subsequently, 100 µL of 10% SDS solution was added to each well. Cells were incubated overnight at 37 °C to dissolve the precipitated formazan crystals. The concentration of the dissolved formazan was evaluated by measuring the absorbance at λ = 570 nm, using a microplate reader (Epoch, BioTek Instruments, Inc., Winooski, VT, USA). Two independent experiments were performed in triplicates. The results of the MTT assay were expressed as mean ± SD. […] IC50 values of the investigated extracts and alkaloid standards were calculated using the IC50 calculator (www.IC50.tk (accessed on 22 January 2021)).
(§2) To determine the selectivity index (SI), IC50 values for human normal fibroblasts was obtained in the same conditions as that used for cancer cell lines. Selectivity index of each compound was determined by calculating the ratio of IC50 values obtained for human normal fibroblasts and cancer cell lines.

G-361 cells = assay: Cell viability (MTT assay), G-361 melanoma cells; assay type: cell-based, human; details: for IC50: Homo sapiens, read-out: IC50 ± SD for Cell Viability, G-361
Description: as §1, §2

A375 cells = assay: Cell viability (MTT assay), A375 melanoma cells; assay type: cell-based, human; details: for IC50: Homo sapiens, read-out: IC50 ± SD for Cell Viability, A375
Description: as §1, §2

[2] = source not given; cited from earlier work
[3] = system: melanoma cell lines (A375, G-361, SK-MEL-3); assay: Cell viability (MTT assay), all three melanoma cell lines taken together; assay type: cell-based, human
Description: Cytotoxicity of the plant extracts, berberine, chelerythrine, chelidonine, protopine, and sanguinarine were examined against a panel of three melanoma cell lines (A375, G-361, SK-MEL-3) characterized by different degrees of genetic complexity. Human skin fibroblasts (CRL-1474) were used in order to evaluate the effect of Saguinaria canadensis extracts against normal (i.e., non-cancerous) cells. The investigated cell lines were obtained from American Type Culture Collection (ATCC; Manassas, VA, USA). A375 and CRL-1474 cells were cultured in Dulbecco’s Modified Eagle’s Medium (DMEM) (Sigma Aldrich, St. Louis, MO, USA), supplemented with 10% heat inactivated fetal bovine serum (FBS), penicillin (100 U/mL), and streptomycin (100 µg/mL). Human melanoma SK-MEL-3 and G-361 cells were maintained in McCoy’s 5A Medium (Sigma Aldrich, St. Louis, MO, USA) supplemented with 15% (for SK-MEL-3) or 10% (for G-361) FBS, penicillin (100 U/mL), and streptomycin (100 µg/mL). […] The concentration of the dissolved formazan was evaluated by measuring the absorbance at λ = 570 nm, using a microplate reader (Epoch, BioTek Instruments, Inc., Winooski, VT, USA). […] The results of the MTT assay were expressed as mean ± SD. […] IC50 values of the investigated extracts and alkaloid standards were calculated using the IC50 calculator (www.IC50.tk (accessed on 22 January 2021)).

SK-MEL-3 cells [4] = assay: Cell proliferation, BrdU incorporation assay; assay type: cell-based, human; details: 24 h incubation, 0.25–100 µg/mL
Method: The antiproliferative effect of S. canadensis extracts was measured by means of the BrdU assay, which indicates the rate of incorporation of 5′-bromo-2′-deoxy-uridine (BrdU) during DNA biosynthesis. In brief, SK-MEL-3 cells were plated in 96-well plates (NUNC, Roskilde, Denmark) at the density of 5 × 10^4 cells/mL. The next day, cells were exposed to increased concentrations (0.25–100 µg/mL) of S. canadensis extracts or cisplatin or a fresh culture medium. Cell proliferation was examined after 24 h incubation, according to the manufacturer’s protocol (Cell Proliferation ELISA BrdU, Roche Diagnostics GmbH, Penzberg, Germany). IC50 values of the investigated extracts and cisplatin were calculated using IC50 calculator [www.IC50.tk (accessed on 11 March 2021)].

[5] = MTT, 24 h exposure, medium with 2% FBS
[6] = SK-MEL3, MTT, 24 h exposure, medium with 2% FBS
[7] = G-361, MTT, 24 h exposure, medium with 2% FBS
[8] = A-375, MTT, 24 h exposure, medium with 2% FBS

Row | Compound | IC50 ± SD for Cell Viability, SK-MEL-3 (SK-MEL-3 cells [1]; [5]) [µg/mL] | IC50 ± SD for Cell Viability, G-361 (G-361 cells; [5]) [µg/mL] | IC50 ± SD for Cell Viability, A375 (A375 cells; [5]) [µg/mL] | IC50 (SK-MEL-3 cells [1]; [6]) [µg/mL] | Log P [2] | pKa [2] | IC50 (G-361 cells; [7]) [µg/mL] | IC50 (A375 cells; [8]) [µg/mL] | further results
1 | NC(=O)NO [Hydroxyurea] | >200 | >200 | >200 | – | – | – | – | – | –
2 | COc1ccc2cc3[n+](cc2c1OC)CCc1cc2c(cc1-3)OCO2 [Berberine] | – | – | – | 41 ± 5.36 | −1.3 | −4.4 | 21 ± 3.25 | 51.6 ± 4.84 | –
3 | CN1Cc2c(ccc3c2OCO3)[C@@H]2[C@H]1c1cc3c(cc1C[C@@H]2O)OCO3 [Chelidonine] | – | – | – | – | 2.05 | 5.73 | – | – | IC50 (SK-MEL-3 cells [1]; SK-MEL3, 24 h): > 50 µg/mL; IC50 (G-361 cells; G-361, 24 h): > 50 µg/mL; IC50 ([3]; Homo sapiens, 24 h, read-out: IC50, cell viability, across all tested melanoma cell lines, A375, G-361, SK-MEL-3): > 50 µg/mL; IC50 (A375 cells; A-375, 24 h): > 50 µg/mL
4 | COc1cc([C@@H]2c3cc4c(cc3[C@@H](O[C@@H]3O[C@@H]5CO[C@@H](C)O[C@H]5[C@H](O)[C@H]3O)[C@H]3COC(=O)[C@H]23)OCO4)cc(OC)c1O [Etoposide] | – | – | – | > 200 | – | – | 52.3 ± 3.86 (≈ 88.9 µM) | 92.3 ± 4.58 (≈ 157 µM) | –
5 | COc1ccc2c(c[n+](C)c3c4cc5c(cc4ccc23)OCO5)c1OC [Chelerythrine] | – | – | – | 0.14 ± 0.004 | −0.88 | −4.4 | 0.46 ± 0.07 | 0.19 ± 0.04 | –
6 | N.N.[Cl][Pt][Cl] [Cisplatin] | 14.42 ± 1.61 | 11.53 ± 1.46 | 10.62 ± 1.04 | – | – | – | – | – | IC50 ± SD for Cell Proliferation Measured by BrdU Incorporation in SK-MEL-3 Cells (SK-MEL-3 cells [4]): 24.84 ± 3.60 µg/mL
7 | C[n+]1cc2c3c(ccc2c2ccc4cc5c(cc4c21)OCO5)OCO3 [Sanguinarine] | – | – | – | – | −0.94 | −4.5 | – | – | IC50 (SK-MEL-3 cells [1]; SK-MEL3, 24 h): 0.54 ± 0.16 µg/mL; IC50 (G-361 cells; G-361, 24 h): 0.17 ± 0.02 µg/mL; IC50 (A375 cells; A-375, 24 h): 0.11 ± 0.003 µg/mL
8 | Protopine | >50 | >50 | >50 | – | 2.59 | 4.95 | – | – | IC50, cell viability, across all tested melanoma cell lines ([3]; A375, G-361, SK-MEL-3, 24 h): more than 50 µg/mL
